Experimental data published in US20060258598A1, “Alpha-keto carbonyl calpain inhibitors” (priority 2003, published 2006).

How the values were obtained:
human μ-calpain = target: T1, human μ-calpain (Homo sapiens, UniProt P07384); assay: Enzymatic calpain inhibition assay; type: biochemical; conditions: substrate Suc-Leu-Tyr-AMC, read-out: Calp I IC50
T1 construct: purchased Calbiochem
T1 sequence (P07384 1-714): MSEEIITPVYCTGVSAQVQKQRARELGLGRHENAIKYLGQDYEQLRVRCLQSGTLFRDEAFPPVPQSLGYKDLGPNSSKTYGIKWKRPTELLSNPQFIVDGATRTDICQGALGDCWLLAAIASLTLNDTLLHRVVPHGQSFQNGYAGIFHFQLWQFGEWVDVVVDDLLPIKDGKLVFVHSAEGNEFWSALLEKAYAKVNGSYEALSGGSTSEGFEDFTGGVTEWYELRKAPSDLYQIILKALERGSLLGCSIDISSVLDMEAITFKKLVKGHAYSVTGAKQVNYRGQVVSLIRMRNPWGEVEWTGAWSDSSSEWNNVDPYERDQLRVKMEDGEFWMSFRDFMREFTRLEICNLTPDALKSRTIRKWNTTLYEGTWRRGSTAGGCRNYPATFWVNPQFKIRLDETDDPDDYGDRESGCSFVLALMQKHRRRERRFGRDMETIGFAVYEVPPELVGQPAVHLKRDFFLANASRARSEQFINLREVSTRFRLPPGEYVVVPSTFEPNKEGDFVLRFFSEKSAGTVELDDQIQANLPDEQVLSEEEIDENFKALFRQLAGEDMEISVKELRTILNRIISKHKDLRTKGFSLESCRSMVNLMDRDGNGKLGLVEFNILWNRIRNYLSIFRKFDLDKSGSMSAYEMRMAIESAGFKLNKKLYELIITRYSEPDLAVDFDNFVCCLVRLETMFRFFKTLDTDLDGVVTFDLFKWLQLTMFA
T1 sequence (P04632 1-268 partner): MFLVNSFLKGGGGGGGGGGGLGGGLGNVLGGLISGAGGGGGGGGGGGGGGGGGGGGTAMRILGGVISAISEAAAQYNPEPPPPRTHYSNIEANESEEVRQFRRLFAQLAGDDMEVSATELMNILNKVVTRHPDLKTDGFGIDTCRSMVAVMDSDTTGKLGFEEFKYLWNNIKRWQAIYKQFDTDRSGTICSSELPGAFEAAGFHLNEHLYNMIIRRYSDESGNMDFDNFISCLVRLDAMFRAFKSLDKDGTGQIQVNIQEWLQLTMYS
Method: The Ki value was also determined in some cases. These criteria were used to measure the inhibitory effect of the compounds (I) on calpain I, calpain II and cathepsin B.
Enzymatic Calpain Inhibition Assay
The inhibitory properties of calpain inhibitors are tested in 100 μl of a buffer containing 100 mM imidazole pH 7.5, 5 mM L-Cystein-HCl, 5 mM CaCl2, 250 μM of the calpain fluorogenic substrate Suc-Leu-Tyr-AMC (Sigma) (Sasaki et al., J. Biol. Chem., 1984, 259, 12489-12949) dissolved in 2.5 μl DMSO and 0.5 μg of human μ-calpain (Calbiochem). The inhibitors dissolved in 1 μl DMSO are added to the reaction buffer. The fluorescence of the cleavage product 7-amino-4-methylcoumarin (AMC) is followed in a SPECTRAmax GEMINI XS (Molecular Device) fluorimeter at λex=360 nm and λem=440 nm at 30° C. during 30 min at intervals of 30 sec in 96-well plates (Greiner). The initial reaction velocity at different inhibitor concentrations is plotted against the inhibitor concentration and the IC50 values determined graphically.

[1] = test system: cellular calpains in C2C12 myoblasts; assay: Calpain inhibition assay in C2C12 myoblasts; type: cell-based; conditions: 2 h incubation, calcium ionophore Br-A-23187, read-out: Calp I IC50 Myoblast
Method: Calpain Inhibition Assay in C2C12 Myoblasts
This assay is aimed at monitoring the ability of the substance to inhibit cellular calpains. C2C12 myoblasts are grown in 96-well plates in growth medium (DMEM, 20% foetal calf serum) until they reach confluency. The growth medium is then replaced by fusion medium (DMEM, 5% horse serum). 24 hours later the fusion medium is replaced by fusion medium containing the test substances dissolved in 1 μl DMSO. After 2 hours of incubation at 37° C. the cells are loaded with the calpain fluorogenic substrate Suc-Leu-Tyr-AMC at 400 μM in 50 μl of a reaction buffer containing 135 mM NaCl; 5 mM KCl; 4 mM CaCl2; 1 mM MgCl2; 10 mM Glucose; 10 mM HEPES pH 7.25 for 20 min at room temperature. The calcium influx, necessary to activate the cellular calpains, is evoked by the addition of 50 μl reaction buffer containing 20 μM of the calcium ionophore Br-A-23187 (Molecular Probes). The fluorescence of the cleavage product AMC is measured as described above during 60 min at 37° C. at intervals of 1 min. The IC50 values are determined as described above. Comparison of the IC50 determined in the enzymatic calpain inhibition assay to the IC50 determined in the C2C12 myoblasts calpain inhibiton assay, allows to evaluate the cellular uptake or the membrane permeability of the substance.

[2] = test system: Primary fibroblasts from donors with Friedreich Ataxia (FRDA); assay: BSO assay (cell viability under BSO-induced oxidative stress); type: cell-based, human; conditions: 24 h preincubation, 1 mM BSO; for EC50: Homo sapiens, Fibroblast
Method: Primary fibroblasts were derived from donors with molecular diagnosis for Friedreich Ataxia (FRDA) and control donors with no mitochondrial disease. Cell lines were obtained from Coriell Cell Repositories (Camden, N.J.; catalog numbers GM04078, GM08402 and GM08399 respectively). All cell types were diagnosed on the molecular level for intronic […] triplet repeat length of at least 400-450 repeats using a PCR-based method. Experiments were carried out as described in the literature (M. L. Jauslin et al., Human Mol. Genet., 2002, 11, 3055-3063): Cells were seeded in microtiter plates at a density of 4'000 cells per 100 μl in growth medium consisting of 25% (v/v) M199 EBS and 64% (v/v) MEM EBS without phenol red (Bioconcept, Allschwil, Switzerland) supplemented with 10% (v/v) fetal calf serum (PAA Laboratories, Linz, Austria), 100 U/ml penicillin, 100 μg/ml streptomycin (PAA Laboratories, Linz, Austria), 10 μg/ml insulin (Sigma, Buchs, Switzerland), 10 ng/ml EGF (Sigma, Buchs, Switzerland), 10 ng/ml bFGF (PreproTech, Rocky Hill, N.J.) and 2 mM glutamine (Sigma, Buchs, Switzerland). The cells were incubated in the presence of various test compounds for 24 h before addition of L-buthionine-(S,R)-sulfoximine (BSO) to a final concentration of 1 mM. Cell viability was measured after the first signs of toxicity appeared in the BSO-treated controls (typically after 16 to 48 h). The cells were stained for 60 min at room temperature in PBS with 1.2 μM calcein AM and 4 μM ethidium homodimer (Live/Dead assay, Molecular Probes, Eugene, Oreg.). Fluorescence intensity was measured with a Gemini Spectramax XS spectrofluorimeter (Molecular Devices, Sunnyvale, Calif.) using excitation and emission wavelengths of 485 nm and 525 nm respectively.

Row | SMILES | IC50 (human μ-calpain) [nM] | IC50 [1] [nM] | EC50 [2] [nM] | BSO EC50 [2]
1 | CCNC(=O)C(=O)[C@H](Cc1ccc(C)cc1)NC(=O)[C@@H](NC(=O)CCCCC1CCSS1)C(C)CC (stereo partly drawn) [Example 116] | 300 | 1000 | 2000 | 
2 | CCNC(=O)C(=O)[C@H](Cc1ccc(C(F)(F)F)cc1)NC(=O)[C@@H](NC(=O)CCCCC1CCSS1)C(C)C (stereo partly drawn) [Example 122] | 200 | 1100 | 5000 | 
3 | CCNC(=O)C(=O)[C@H](Cc1cccc(C(F)(F)F)c1)NC(=O)[C@H](CC(C)C)NC(=O)CCCCC1CCSS1 (stereo partly drawn) [Example 128] | 100 | 15000 | 20000 | 
4 | CCNC(=O)C(=O)[C@H](Cc1cccc(C(F)(F)F)c1)NC(=O)[C@H](CC(C)C)NC(=O)CCCCC1CCS[S+]1[O-] (stereo partly drawn) [Example 129] | 50 | 4000 | 2000 | 
5 | CCNC(=O)C(=O)[C@H](Cc1ccc(C#N)cc1)NC(=O)[C@@H](NC(=O)CCCCC1CCSS1)C(C)C (stereo partly drawn) [Example 130] | 120 | 5000 | 20000 | 
6 | CCNC(=O)C(=O)[C@H](Cc1ccc(C#N)cc1)NC(=O)[C@@H](NC(=O)CCCCC1CCS[S+]1[O-])C(C)C (stereo partly drawn) [Example 131] | 180 | 7500 | 30000 | 
7 | CCNC(=O)C(=O)[C@H](Cc1ccc(C#N)cc1)NC(=O)[C@H](CC(C)C)NC(=O)CCCCC1CCSS1 (stereo partly drawn) [Example 132] | 30 | 1700 | 5000 | 
8 | CCNC(=O)C(=O)[C@H](Cc1ccc(C#N)cc1)NC(=O)[C@H](CC(C)C)NC(=O)CCCCC1CCS[S+]1[O-] (stereo partly drawn) [Example 133] | 50 | 2500 | 15000 | 
9 | CCNC(=O)C(=O)[C@H](Cc1ccc([N+](=O)[O-])cc1)NC(=O)[C@H](CC(C)C)NC(=O)CCCCC1CCSS1 (stereo partly drawn) [Example 136] | 20 | 8000 |  | inactive
10 | CCNC(=O)C(=O)[C@H](Cc1ccccc1)NC(=O)[C@@H](NC(=O)CCCCC1CCSS1)C(C)C (stereo partly drawn) [Example 138] | 80 | 3500 | 10000 | 
11 | CCNC(=O)C(=O)[C@H](Cc1ccccc1)NC(=O)[C@H](CC(C)C)NC(=O)CCCCC1CCS[S+]1[O-] (stereo partly drawn) [Example 142] | 100 | 20000 | 3000 | 
12 | CCNC(=O)C(=O)[C@H](Cc1ccccc1)NC(=O)[C@H](CC(C)(C)C)NC(=O)CCCCC1CCSS1 (stereo partly drawn) [Example 143] | 120 | 10000 | 2000 | 
13 | CCNC(=O)C(=O)[C@H](Cc1ccccc1)NC(=O)[C@H](CC(C)(C)C)NC(=O)CCCCC1CCS[S+]1[O-] (stereo partly drawn) [Example 144] | 80 | 5000 | 7000 | 
